Results from PubChem BioAssay AID330 (DTP/NCI, 2004).
Values joined by “and” are separate entries in the source; they are usually repeats but may differ in a detail not shown here. Equal values may be shown once. Toxic doses and inconclusive results are not listed. How the source made its calls: active means survival T/C of 150% or more; inactive means T/C below 125% in these data.

Test system: P388 leukemia ip, CD2F1 mice, survival T/C
Test: NCI In Vivo Anticancer Drug Screen. Data for tumor model P388 Leukemia (intraperitoneal) in CD2F1 (CDF1) mice
Conditions: endpoint: median survival time, higher = longer survival
Summary of the method: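 Mice carrying the transplanted tumor received test compound or vehicle. Survival was recorded in each group, and the value is the treated-group measurement divided by that of the vehicle-treated control group.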

Measured: T/C

Fc1cccc(CSc2ncnc3nc[nH]c23)c1
inactive: dose: 25.0 mg/kg/injection, schedule: Q01DX009 (ip), vehicle: saline with Tween-80 104 % of control | dose: 25.0 mg/kg/injection, schedule: Q04DX003 (ip), vehicle: saline with Tween-80 95 % of control | dose: 50.0 mg/kg/injection, schedule: Q01DX009 (ip), vehicle: saline with Tween-80 95 % of control | dose: 50.0 mg/kg/injection, schedule: Q04DX003 (ip), vehicle: saline with Tween-80 90 % of control | dose: 100.0 mg/kg/injection, schedule: Q01DX009 (ip), vehicle: saline with Tween-80 104 % of control | dose: 100.0 mg/kg/injection, schedule: Q04DX003 (ip), vehicle: saline with Tween-80 100 % of control and 104 % of control | dose: 200.0 mg/kg/injection, schedule: Q04DX003 (ip), vehicle: saline with Tween-80 100 % of control

Cc1ccc(Cl)c(C(O)(C(F)(F)F)C(F)(F)F)c1
inactive: dose: 100.0 mg/kg/injection, schedule: Q01DX001 (ip), vehicle: other 95 % of control | dose: 100.0 mg/kg/injection, schedule: Q01DX001 (ip), vehicle: saline with Tween-80 108 % of control | dose: 200.0 mg/kg/injection, schedule: Q01DX001 (ip), vehicle: other 92 % of control | dose: 200.0 mg/kg/injection, schedule: Q01DX001 (ip), vehicle: saline with Tween-80 108 % of control | dose: 400.0 mg/kg/injection, schedule: Q01DX001 (ip), vehicle: saline with Tween-80 93 % of control
